Values joined by “and” are separate entries in the source; they are usually repeats but may differ in a detail not shown here. Equal values may be shown once. Records with an inconclusive call do not appear.
Test system: BDF1 mice, colon carcinoma 38 sc, T/C %
Experiment: NCI In Vivo Anticancer Drug Screen. Data for tumor model Colon Carcinoma 38 (subcutaneous) in B6D2F1 (BDF1) mice
Details: endpoint: median tumor weight (est.), higher = larger tumour
Procedure, shortened: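 Transplantable tumor in mice; compound-treated vs vehicle-dosed controls. Measured survival or tumor size; value = T ÷ C.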

[1] = dose: 12.5 mg/kg/injection, schedule: Q07DX003 (ip), vehicle: Klucel (hydroxypropylcellulose) (HPC)
[2] = dose: 25.0 mg/kg/injection, schedule: Q07DX002 (ip), vehicle: Klucel (hydroxypropylcellulose) (HPC)
[3] = dose: 50.0 mg/kg/injection, schedule: Q07DX002 (ip), vehicle: Klucel (hydroxypropylcellulose) (HPC)
[4] = dose: 50.0 mg/kg/injection, schedule: Q07DX003 (ip), vehicle: Klucel (hydroxypropylcellulose) (HPC)
[5] = dose: 100.0 mg/kg/injection, schedule: Q07DX002 (ip), vehicle: Klucel (hydroxypropylcellulose) (HPC)
[6] = dose: 200.0 mg/kg/injection, schedule: Q07DX002 (ip), vehicle: Klucel (hydroxypropylcellulose) (HPC)
[7] = dose: 25.0 mg/kg/injection, schedule: Q07DX002 (ip), vehicle: saline
[8] = dose: 50.0 mg/kg/injection, schedule: Q07DX002 (ip), vehicle: saline
[9] = dose: 100.0 mg/kg/injection, schedule: Q07DX002 (ip), vehicle: saline

In the case of Nc1ncn(C2CC(O)C(CO)O2)c(=O)n1 (configuration not stated), the T/C (dose: 0.5 mg/kg/injection, schedule: Q07DX002 (ip), vehicle: Klucel (hydroxypropylcellulose) (HPC)) is reported as 102 % of control, the T/C (dose: 0.5 mg/kg/injection, schedule: Q07DX002 (ip), vehicle: saline) is reported as 90 % of control and the T/C (dose: 1.0 mg/kg/injection, schedule: Q07DX002 (ip), vehicle: Klucel (hydroxypropylcellulose) (HPC)) is reported as 113 % of control. For the same compound, the T/C (dose: 1.0 mg/kg/injection, schedule: Q07DX002 (ip), vehicle: saline) was 99 % of control, the T/C (dose: 2.0 mg/kg/injection, schedule: Q07DX002 (ip), vehicle: Klucel (hydroxypropylcellulose) (HPC)) was 86 % of control and the T/C (dose: 2.0 mg/kg/injection, schedule: Q07DX002 (ip), vehicle: saline) was 75 % of control. The T/C (dose: 3.0 mg/kg/injection, schedule: Q07DX002 (ip), vehicle: saline) was 14 % of control and 34 % of control, the T/C (dose: 4.0 mg/kg/injection, schedule: Q07DX002 (ip), vehicle: Klucel (hydroxypropylcellulose) (HPC)) was 106 % of control and the T/C (dose: 4.0 mg/kg/injection, schedule: Q07DX002 (ip), vehicle: saline) was 43 % of control. The T/C (dose: 6.0 mg/kg/injection, schedule: Q07DX002 (ip), vehicle: saline) was 29 % of control and 46 % of control, the T/C (dose: 8.0 mg/kg/injection, schedule: Q07DX002 (ip), vehicle: Klucel (hydroxypropylcellulose) (HPC)) was 60 % of control and the T/C (dose: 8.0 mg/kg/injection, schedule: Q07DX002 (ip), vehicle: saline) was 28 % of control. For the same compound, the T/C (dose: 12.0 mg/kg/injection, schedule: Q07DX002 (ip), vehicle: saline) was 23 % of control, the T/C (dose: 16.0 mg/kg/injection, schedule: Q07DX002 (ip), vehicle: Klucel (hydroxypropylcellulose) (HPC)) was 41 % of control and the T/C (dose: 16.0 mg/kg/injection, schedule: Q07DX002 (ip), vehicle: saline) was 22 % of control. For the same compound, the T/C (dose: 32.0 mg/kg/injection, schedule: Q07DX002 (ip), vehicle: Klucel (hydroxypropylcellulose) (HPC)) was 43 % of control and the T/C (dose: 32.0 mg/kg/injection, schedule: Q07DX002 (ip), vehicle: saline) was 4 % of control.

For O=C(O)/C=C/C(=O)Nc1ccc(Cl)c(Cl)c1, the T/C [1] was 84 % of control, the T/C [2] was 67 % of control and the T/C [3] was 77 % of control. The T/C [4] was 69 % of control, the T/C [5] was 78 % of control and the T/C (dose: 100.0 mg/kg/injection, schedule: Q07DX003 (ip), vehicle: Klucel (hydroxypropylcellulose) (HPC)) was 122 % of control. The T/C [6] was 67 % of control.

For CN1CCN(CCCN2c3ccccc3Sc3ccc(C(F)(F)F)cc32)CC1, the T/C (dose: 6.25 mg/kg/injection, schedule: Q07DX002 (ip), vehicle: saline with Tween-80) was 104 % of control, the T/C (dose: 6.25 mg/kg/injection, schedule: Q07DX002 (ip), vehicle: saline) was 116 % of control and the T/C (dose: 12.5 mg/kg/injection, schedule: Q07DX002 (ip), vehicle: saline) was 112 % of control. The T/C (dose: 25.0 mg/kg/injection, schedule: Q07DX002 (ip), vehicle: saline with Tween-80) was 91 % of control, the T/C [7] was 97 % of control and the T/C (dose: 50.0 mg/kg/injection, schedule: Q07DX002 (ip), vehicle: saline with Tween-80) was 96 % of control. The T/C [8] was 90 % of control, the T/C [9] was 96 % of control and the T/C (dose: 200.0 mg/kg/injection, schedule: Q07DX002 (ip), vehicle: saline) was 74 % of control.

In the case of C/C(=C\c1ccccc1)[N+](=O)[O-], the T/C [1] is reported as 81 % of control, the T/C (dose: 25.0 mg/kg/injection, schedule: Q07DX003 (ip), vehicle: Klucel (hydroxypropylcellulose) (HPC)) is reported as 79 % of control and 91 % of control and the T/C [4] is reported as 82 % of control and 90 % of control.

In the case of COc1ccc2ccccc2c1C1NC(=O)c2ccccc2N1 (configuration not stated), the T/C [2] is reported as 76 % of control, the T/C [3] is reported as 93 % of control and the T/C [5] is reported as 59 % of control. For the same compound, the T/C [6] was 52 % of control, the T/C (dose: 400.0 mg/kg/injection, schedule: Q07DX002 (ip), vehicle: Klucel (hydroxypropylcellulose) (HPC)) was 69 % of control and the T/C (dose: 800.0 mg/kg/injection, schedule: Q07DX002 (ip), vehicle: Klucel (hydroxypropylcellulose) (HPC)) was 69 % of control.

For N=[N+]=CC(=O)OCC(N)C(=O)O (configuration not stated), the T/C (dose: 3.12 mg/kg/injection, schedule: Q07DX002 (ip), vehicle: water) was 97 % of control, the T/C (dose: 3.12 mg/kg/injection, schedule: Q07DX003 (ip), vehicle: clinical formulation) was 159 % of control and the T/C (dose: 6.25 mg/kg/injection, schedule: Q07DX002 (ip), vehicle: water) was 117 % of control. The T/C (dose: 6.25 mg/kg/injection, schedule: Q07DX003 (ip), vehicle: clinical formulation) was 110 % of control, the T/C (dose: 12.5 mg/kg/injection, schedule: Q07DX003 (ip), vehicle: clinical formulation) was 88 % of control and the T/C (dose: 25.0 mg/kg/injection, schedule: Q07DX002 (ip), vehicle: water) was 99 % of control. For the same compound, the T/C (dose: 25.0 mg/kg/injection, schedule: Q07DX003 (ip), vehicle: clinical formulation) was 100 % of control and the T/C (dose: 50.0 mg/kg/injection, schedule: Q07DX002 (ip), vehicle: water) was 91 % of control.

With C[C@@]1(CO)[C@H](O)CC[C@@]2(C)[C@H]1CC[C@H]1C[C@@H]3C[C@@]12CC[C@@]3(O)COC(=O)CN the T/C (dose: 25.0 micrograms/kg/injection, schedule: Q07DX002 (ip), vehicle: saline + alcohol) was 155 % of control and the T/C (dose: 100.0 micrograms/kg/injection, schedule: Q07DX002 (ip), vehicle: saline + alcohol) was 107 % of control.

With C[n+]1c(-c2cccc(OCCOCCOc3cccc(-c4c5cc(N)ccc5c5ccc(N)cc5[n+]4C)c3)c2)c2cc(N)ccc2c2ccc(N)cc21 the T/C (dose: 1.0 mg/kg/injection, schedule: Q07DX002 (ip), vehicle: water) was 53 % of control, the T/C (dose: 4.0 mg/kg/injection, schedule: Q07DX002 (ip), vehicle: water) was 44 % of control and 45 % of control and the T/C (dose: 32.0 mg/kg/injection, schedule: Q07DX002 (ip), vehicle: water) was 81 % of control.

For O=[N+]([O-])O.[Ga], the T/C (dose: 12.5 mg/kg/injection, schedule: Q07DX003 (ip), vehicle: saline) was 122 % of control, the T/C [7] was 159 % of control and the T/C (dose: 25.0 mg/kg/injection, schedule: Q07DX003 (ip), vehicle: saline) was 121 % of control. For the same compound, the T/C [8] was 78 % of control, the T/C [9] was 81 % of control and the T/C (dose: 100.0 mg/kg/injection, schedule: Q07DX003 (ip), vehicle: saline) was 44 % of control.

N/C(=N\OC(=O)Nc1ccc(CSc2ccc(Cl)cc2)o1)c1ccccn1 was tested, and the T/C [2] was 89 % of control, the T/C [3] was 75 % of control and the T/C [5] was 90 % of control.

With Nc1ncnc2c1ncn2C1OC(CO)CC1O (configuration not stated) the T/C (dose: 75.0 mg/kg/injection, schedule: Q07DX002 (ip), vehicle: Klucel (hydroxypropylcellulose) (HPC)) was 110 % of control, the T/C (dose: 150.0 mg/kg/injection, schedule: Q07DX002 (ip), vehicle: Klucel (hydroxypropylcellulose) (HPC)) was 88 % of control and the T/C (dose: 300.0 mg/kg/injection, schedule: Q07DX002 (ip), vehicle: Klucel (hydroxypropylcellulose) (HPC)) was 54 % of control.

Source: PubChem BioAssay AID212 (DTP/NCI, 2004)
